Test system: cognitive function of a human
Assay: Cognitrax test in placebo-controlled randomized double-blind clinical tests A and B
Assay type: in vivo
Design: Reaction time / Complex attention / Cognitive flexibility / Social acuity / Non-verbal reasoning / Working memory / Continuous attention / Simple attention: scale not given here
Source text: A Cognitrax test is known as such an examination that can assess a plurality of domains or items of cognitive function. The Cognitrax test is a cognitive function examination service practiced on the Web based on the cognitive function examination technique developed by CNS Vital Signs in the United States. In the Cognitrax test, among a total of 10 types of tests, which are verbal memory test, visual memory test, finger tapping test, symbol digit coding test (SDC test), Stroop test, shifting attention test, continuous performance test, perception of emotion test, reasoning test and four part continuous performance test, a test is carried out in accordance with the purpose of the examination to digitize the examination result regarding each of a total of 16 types of items at most, which are neurocognition index, composite memory, verbal memory, visual memory, psychomotor speed, reaction time, complex attention, cognitive flexibility, processing speed, executive function, social acuity, non-verbal reasoning, working memory, continuous attention, simple attention and motor speed.
Two types of placebo-controlled randomized double-blind two-group parallel comparison tests were carried out as clinical tests. […] Specifically, capsules comprising 100 mg of dextrin per capsule were used as the placebo food.
The screening examination was carried out to select 60 subjects for each test (a total of 120 subjects). MMSE (Mini Mental State Examination) is an examination for assessing the degree of progression of dementia or the like based on the score thereof with 30 as the perfect score, wherein dementia is suspected with a score of 23 or lower.
• (1) Japanese male and female at the age of 40 or higher • (2) People aware of reduction in cognitive function • (3) People who can continuously ingest the test food every day for 12 weeks • (4) People with an MMSE score of 24 or higher • (5) People who have received sufficient explanation of the purpose/content of the clinical test, have the ability to give consent, voluntarily applied to participate in the clinical test with sufficient understanding, and gave consent to the participation in the clinical test on paper
The total of 120 subjects were randomly divided into test A active group, test A placebo group, test B active group and test B placebo group with 30 subjects in each group. Each subject of the test A active group ingested two capsules of the active food, each subject of the test A placebo group ingested two capsules of the placebo food, each subject of the test B active group ingested one capsule of the active food and each subject of the test B placebo group ingested one capsule of the placebo food.
Each subject followed the schedule shown in the table below and ingested one or two of the assigned capsules together with water for 12 weeks from two weeks after the initial screening examination. All subjects had no particular instruction during the ingestion period and freely took their meals.
As shown with ● in the test schedule in Table 1, Cognitrax was carried out a total of five times, which are upon screening, before starting test food sample ingestion, after four weeks of ingestion, after eight weeks of ingestion and after twelve weeks of ingestion, and the RBANS neuropsychological test was carried out a total of two times, which are before staring test food ingestion and after twelve weeks of ingestion.

[1] = test A 200 mg, before ingestion
[2] = test A 200 mg, before ingestion, mean ± SD
[3] = test A, after eight weeks of ingestion

NCCCC(=O)O [GABA, γ-aminobutyric acid]
Cognition flexibility: difference between active food and placebo food groups (test A 200 mg, 4 w): 2.1 | Complex attention: difference between active food and placebo food groups (test A 200 mg, 4 w): 0.6 | Composite memory: difference between active food and placebo food groups (test A 200 mg, 4 w): −0.9 | Continuous attention: difference between active food and placebo food groups (test A 200 mg, 4 w): 1.1 | Executive function: difference between active food and placebo food groups (test A 200 mg, 4 w): 2.4 | Motor speed: difference between active food and placebo food groups (test A 200 mg, 4 w): 6.0 | Non-verbal reasoning: difference between active food and placebo food groups (test A 200 mg, 4 w): 4.2 | Processing speed: difference between active food and placebo food groups (test A 200 mg, 4 w): 4.1 | Psychomotor speed: difference between active food and placebo food groups (test A 200 mg, 4 w): 7.1 | Reaction time: difference between active food and placebo food groups (test A 200 mg, 4 w): 5.0 | Simple attention: difference between active food and placebo food groups (test A 200 mg, 4 w): 0.9 | Social acuity: difference between active food and placebo food groups (test A 200 mg, 4 w): −2.2 | Verbal memory: difference between active food and placebo food groups (test A 200 mg, 4 w): 0.2 | Visual memory: difference between active food and placebo food groups (test A 200 mg, 4 w): −1.4 | Working memory: difference between active food and placebo food groups (test A 200 mg, 4 w): 3.0 | Cognitive flexibility (test A 200 mg, 4 w, mean ± SD): 104.4 ± 9.8 | Executive function (test A 200 mg, 4 w, mean ± SD): 104.5 ± 9.8 | Non-verbal reasoning (test A 200 mg, 4 w, mean ± SD): 102.6 ± 9.1 | Reaction time (test A 200 mg, 4 w, mean ± SD): 99.3 ± 0.4 | Simple attention (test A 200 mg, 4 w, mean ± SD): 100.2 ± 10.5 | Social acuity (test A 200 mg, 4 w, mean ± SD): 93.2 ± 18.9 | Working memory (test A 200 mg, 4 w, mean ± SD): 108.5 ± 11.2 | Cognition flexibility: difference between active food and placebo food groups (test A 200 mg, 8 w): 4.6 | Complex attention: difference between active food and placebo food groups (test A 200 mg, 8 w): 1.3 | Composite memory: difference between active food and placebo food groups (test A 200 mg, 8 w): −2.9 | Continuous attention: difference between active food and placebo food groups (test A 200 mg, 8 w): 5.6 | Executive function: difference between active food and placebo food groups (test A 200 mg, 8 w): 4.9 | Motor speed: difference between active food and placebo food groups (test A 200 mg, 8 w): 3.9 | Non-verbal reasoning: difference between active food and placebo food groups (test A 200 mg, 8 w): −2.2 | Processing speed: difference between active food and placebo food groups (test A 200 mg, 8 w): 3.5 | Psychomotor speed: difference between active food and placebo food groups (test A 200 mg, 8 w): 5.2 | Reaction time: difference between active food and placebo food groups (test A 200 mg, 8 w): −0.6 | Simple attention: difference between active food and placebo food groups (test A 200 mg, 8 w): −0.3 | Social acuity: difference between active food and placebo food groups (test A 200 mg, 8 w): −0.3 | Verbal memory: difference between active food and placebo food groups (test A 200 mg, 8 w): −6.3 | Visual memory: difference between active food and placebo food groups (test A 200 mg, 8 w): 1.4 | Working memory: difference between active food and placebo food groups (test A 200 mg, 8 w): 7.2 | Cognitive flexibility (test A 200 mg, 8 w, mean ± SD): 108.2 ± 8.6 | Executive function (test A 200 mg, 8 w, mean ± SD): 108.5 ± 8.6 | Non-verbal reasoning (test A 200 mg, 8 w, mean ± SD): 104.9 ± 12.5 | Reaction time (test A 200 mg, 8 w, mean ± SD): 94.0 ± 21.9 | Simple attention (test A 200 mg, 8 w, mean ± SD): 99.2 ± 14.9 | Social acuity (test A 200 mg, 8 w, mean ± SD): 91.3 ± 20.8 | Working memory (test A 200 mg, 8 w, mean ± SD): 113.4 ± 9.7 | Cognition flexibility: difference between active food and placebo food groups (test A 200 mg, 12 w): 1.4 | Complex attention: difference between active food and placebo food groups (test A 200 mg, 12 w): 1.7 | Composite memory: difference between active food and placebo food groups (test A 200 mg, 12 w): −5.0 | Continuous attention: difference between active food and placebo food groups (test A 200 mg, 12 w): 3.7 | Executive function: difference between active food and placebo food groups (test A 200 mg, 12 w): 1.4 | Motor speed: difference between active food and placebo food groups (test A 200 mg, 12 w): 6.1 | Non-verbal reasoning: difference between active food and placebo food groups (test A 200 mg, 12 w): 6.8 | Processing speed: difference between active food and placebo food groups (test A 200 mg, 12 w): 3.1 | Psychomotor speed: difference between active food and placebo food groups (test A 200 mg, 12 w): 6.4 | Reaction time: difference between active food and placebo food groups (test A 200 mg, 12 w): 5.5 | Simple attention: difference between active food and placebo food groups (test A 200 mg, 12 w): 5.5 | Social acuity: difference between active food and placebo food groups (test A 200 mg, 12 w): −8.0 | Verbal memory: difference between active food and placebo food groups (test A 200 mg, 12 w): −3.1 | Visual memory: difference between active food and placebo food groups (test A 200 mg, 12 w): −4.6 | Working memory: difference between active food and placebo food groups (test A 200 mg, 12 w): 4.2 | Cognitive flexibility (test A 200 mg, 12 w, mean ± SD): 107.5 ± 7.3 | Continuous attention (test A 200 mg, 12 w, mean ± SD): 112.9 ± 8.2 | Reaction time (test A 200 mg, 12 w, mean ± SD): 100.7 ± 10.4 | Simple attention (test A 200 mg, 12 w, mean ± SD): 97.9 ± 17.0 | Social acuity (test A 200 mg, 12 w, mean ± SD): 89.0 ± 23.1 | Cognition flexibility: difference between active food and placebo food groups [1]: 4.4 | Complex attention: difference between active food and placebo food groups [1]: 3.4 | Composite memory: difference between active food and placebo food groups [1]: 5.6 | Continuous attention: difference between active food and placebo food groups [1]: 3.3 | Executive function: difference between active food and placebo food groups [1]: 4.5 | Motor speed: difference between active food and placebo food groups [1]: 6.7 | Non-verbal reasoning: difference between active food and placebo food groups [1]: 3.7 | Processing speed: difference between active food and placebo food groups [1]: 3.6 | Psychomotor speed: difference between active food and placebo food groups [1]: 7.1 | Reaction time: difference between active food and placebo food groups [1]: 4.5 | Simple attention: difference between active food and placebo food groups [1]: 2.2 | Social acuity: difference between active food and placebo food groups [1]: −6.4 | Verbal memory: difference between active food and placebo food groups [1]: 4.6 | Visual memory: difference between active food and placebo food groups [1]: 4.0 | Working memory: difference between active food and placebo food groups [1]: 3.5 | Cognitive flexibility [2]: 102.5 ± 9.4 | Complex attention [2]: 105.6 ± 9.8 | Executive function [2]: 102.8 ± 9.0 | Non-verbal reasoning [2]: 102.4 ± 14.9 | Reaction time [2]: 96.6 ± 14.5 | Simple attention [2]: 97.9 ± 17.4 | Social acuity [2]: 87.9 ± 17.9 | scores regarding continuous attention, GABA group compared to the placebo group [3]: significant improvement | scores regarding working memory, GABA group compared to the placebo group [3]: significant improvement | scores regarding reasoning, GABA group compared to the placebo group (test A, after twelve weeks of ingestion): significant improvement

Source: patent US20260053764A1, “COMPOSITION FOR PREVENTING DETERIORATION IN COGNITIVE FUNCTION AND/OR IMPROVING COGNITIVE FUNCTION” (PHARMA FOODS INTERNATIONAL CO., LTD., priority 2020, published 2026)
